Patent US20230174460A1, “AFMT ANALOGS AND THEIR USE IN METHODS OF TREATING PARKINSON'S DISEASE” (President and Fellowes of Harvard College, priority 2020, published 2023)

System: E. faecalis MMH594 whole cells (TyrDC)
Assay: Inhibition of L-dopa decarboxylation in E. faecalis whole cells
Assay type: cell-based, Enterococcus faecalis MMH594
Settings: for EC50: E. faecalis whole cells / cultures
Description: Thus, a library of commercially available tyrosine and phenylalanine derivatives were evaluated for decarboxylation by Enterococcus faecalis MMH594 whole cells; decarboxylation efficiency of a given tyrosine analog was used to identify favorable aromatic fragments, with high conversion indicating a favorable arene scaffold. […] To quickly assess whether the trend in native decarboxylation activity can be translated to inhibitory activity, we evaluated benzyl aminooxy compounds with similar aromatic elements as inhibitors for L-dopa decarboxylation in E. faecalis MMH594 whole cells (10 μM inhibitor); high L-dopa recovery indicated high inhibitory efficiency. […] In addition, these compounds are either commercially available or can be accessed in a two-step synthetic sequence (European Journal of Medicinal Chemistry 2016, 108, 564-576). As shown, inhibitors without a para-hydroxyphenyl motif are not effective towards L-dopa decarboxylation in whole cells (FIG. 3B). Aminooxy compounds with this structural motif can inhibit L-dopa decarboxylation in E. faecalis cultures at low concentrations.
AFMT analogs were evaluated for their inhibitory effects towards L-dopa decarboxylation using the same protocol as described above. 500 μM L-dopa was incubated anaerobically at 37° C. with E. faecalis MMH594 in the presence of 100 μM inhibitor for 18-24 h. The level of remaining L-dopa was measured by MS/MS and then normalized to the level of L-dopa from a mutant control. […] Since (S)-AFMT is the active AFMT enantiomer, the stereochemical assignments in FIG. 5 assume that the enantiomer with the higher inhibitory activity carries the […] configuration. Chiral configuration will be unambiguously determined via crystallography in the future.

Row | Compound | EC50 [µM] | further results
1 | NOCc1ccc(O)c(F)c1 [3-fluoro-4-hydroxybenzyl aminooxy] | 2.2 | 
2 | NOCc1ccc(O)cc1 [4-hydroxybenzyl aminooxy] | 1.5 | 
3 | N[C@@](CF)(Cc1ccc(O)cc1)C(=O)O [AFMT, α-fluoromethyltyrosine] |  | EC50 (Enterococcus faecalis): 1.4 µM
4 | C[C@@](Cc1ccc(O)c(O)c1)(NN)C(=O)O [carbidopa] |  | limiting L-dopa decarboxylation by E. faecalis (applicant's original study): ineffective
